Consider 8 compounds from patent US20060094710A1, “Piperidine-pyridazones and phthalazones as pde4 inhibitors” (Altana Pharma AG, priority 2002, published 2006).

`COc1ccc(C2=NN(C3CCN(CC(=O)c4cc5ccccc5o4)CC3)C(=O)C3CC=CCC23)cc1OC` (centres unmarked) [Compound 2]: the melting point was 188 to 189 °C. Then `COc1ccc(C2=NN(C3CCN(C(=O)CS(C)(=O)=O)CC3)C(=O)[C@@H]3CC=CC[C@H]23)cc1OC` [Compound 1, (4aS,8aR)-4-(3,4-Dimethoxy-phenyl)-2-[1(2-methanesulfonyl-ethanoyl)-piperidin-4-yl]-4a,5,8,8a-tetrahydro-2H-phthalazin-1-one], with 169 to 170 °C; and `COc1ccc(C2=NN(C3CCN(CCS(C)(=O)=O)CC3)C(=O)[C@@H]3CC=CC[C@H]23)cc1OC.Cl` [Compound 11, (4aS,8aR)-4-(3,4-Dimethoxy-phenyl)-2-[1-(2-methanesulfonyl-ethyl)-piperidin-4-yl]-4a,5,8,8a-tetrahydro-2H-phthalazin-1-one hydrochloride], with 87 to 90 °C; and `COc1ccc(C2=NN(C3CCN(C(=O)CCCOc4ccc5[nH]c(=O)ccc5c4)CC3)C(=O)CC2)cc1OC` [Compound 15, 6-(4-{4-[3-(3,4-Dimethoxy-phenyl)-6-oxo-5,6-dihydro-4H-pyridazin-1-yl]-piperidin-1-yl}-4-oxo-butoxy)-1H-quinolin-2-one], with 169 to 171 °C. Turning to `COc1ccc(C2=NN(C3CCN(Cc4ccc(-n5cnc6ccccc65)cc4)CC3)C(=O)[C@@H]3CC=CC[C@H]23)cc1OC.Cl` [Compound 3, (4aS,8aR)-2-[1-(4-Benzimidazol-1-yl-benzyl)-piperidin-4-yl]-4-(3,4-dimethoxy-phenyl)-4a,5,8,8a-tetrahydro-2H-phthalazin-1-one hydrochloride], the melting point is 147 to 149 °C. Next, `COCCN1CCC(N2N=C(c3ccc(OC)c(OC)c3)[C@H]3CC=CC[C@H]3C2=O)CC1.Cl` [Compound 9, (4aS,8aR)-4-(3,4-Dimethoxy-phenyl)-2-[1-(2-methoxy-ethyl)-piperidin-4-yl]-4a,5,8,8a-tetrahydro-2H-phthalazin-1-one hydrochloride]: 87 to 90 °C; `COc1ccc(C2=NN(C3CCN(C(=O)CCS(=O)(=O)CCNC(=O)N4CCOCC4)CC3)C(=O)C3CC=CCC23)cc1OC` (centres unmarked) [Compound 5]: 118 to 121 °C; `COc1ccc(C2=NN(C3CCN(CCOCCN)CC3)C(=O)[C@@H]3CC=CC[C@H]23)cc1OC.Cl.Cl`: 86 to 89 °C.

A word on the melting point: it is the temperature of the solid-liquid transition.
